The subject of assay [1] is C2 cells. The experiment in a line: C2 cell proliferation and viability (trypan blue counting). Type of assay: cell-based, dog. Particulars: treated daily with 1 μM. As to the method:
(§1) FIG. 2: Effects of indolinone derivatives on neoplastic mast cell growth. […] Results (mean±SEM) represent averages of triplicate cultures.
(§2) KIT activity was determined by in vitro phosphorylation, as previously described (Ma et al, 1999a). The neoplastic mast cell line C2 and P815 have been previously described (Dunn et al, 1957; Lazarus et al, 1986; DeVinney and Gold, 1990), and their activating c-KIT mutations characterized (Tsujimura et al, 1994; Ma et al, 1999a). To determine cell proliferation and viability, cells from triplicate cultures were stained with trypan blue and counted in a hemocytometer. All experiments were repeated at least three times.

Assay [2] deals with insulin receptor (Homo sapiens, UniProt P06213). Particulars: cited from earlier work.
Sequence of insulin receptor (P06213 28-1382, species assumed): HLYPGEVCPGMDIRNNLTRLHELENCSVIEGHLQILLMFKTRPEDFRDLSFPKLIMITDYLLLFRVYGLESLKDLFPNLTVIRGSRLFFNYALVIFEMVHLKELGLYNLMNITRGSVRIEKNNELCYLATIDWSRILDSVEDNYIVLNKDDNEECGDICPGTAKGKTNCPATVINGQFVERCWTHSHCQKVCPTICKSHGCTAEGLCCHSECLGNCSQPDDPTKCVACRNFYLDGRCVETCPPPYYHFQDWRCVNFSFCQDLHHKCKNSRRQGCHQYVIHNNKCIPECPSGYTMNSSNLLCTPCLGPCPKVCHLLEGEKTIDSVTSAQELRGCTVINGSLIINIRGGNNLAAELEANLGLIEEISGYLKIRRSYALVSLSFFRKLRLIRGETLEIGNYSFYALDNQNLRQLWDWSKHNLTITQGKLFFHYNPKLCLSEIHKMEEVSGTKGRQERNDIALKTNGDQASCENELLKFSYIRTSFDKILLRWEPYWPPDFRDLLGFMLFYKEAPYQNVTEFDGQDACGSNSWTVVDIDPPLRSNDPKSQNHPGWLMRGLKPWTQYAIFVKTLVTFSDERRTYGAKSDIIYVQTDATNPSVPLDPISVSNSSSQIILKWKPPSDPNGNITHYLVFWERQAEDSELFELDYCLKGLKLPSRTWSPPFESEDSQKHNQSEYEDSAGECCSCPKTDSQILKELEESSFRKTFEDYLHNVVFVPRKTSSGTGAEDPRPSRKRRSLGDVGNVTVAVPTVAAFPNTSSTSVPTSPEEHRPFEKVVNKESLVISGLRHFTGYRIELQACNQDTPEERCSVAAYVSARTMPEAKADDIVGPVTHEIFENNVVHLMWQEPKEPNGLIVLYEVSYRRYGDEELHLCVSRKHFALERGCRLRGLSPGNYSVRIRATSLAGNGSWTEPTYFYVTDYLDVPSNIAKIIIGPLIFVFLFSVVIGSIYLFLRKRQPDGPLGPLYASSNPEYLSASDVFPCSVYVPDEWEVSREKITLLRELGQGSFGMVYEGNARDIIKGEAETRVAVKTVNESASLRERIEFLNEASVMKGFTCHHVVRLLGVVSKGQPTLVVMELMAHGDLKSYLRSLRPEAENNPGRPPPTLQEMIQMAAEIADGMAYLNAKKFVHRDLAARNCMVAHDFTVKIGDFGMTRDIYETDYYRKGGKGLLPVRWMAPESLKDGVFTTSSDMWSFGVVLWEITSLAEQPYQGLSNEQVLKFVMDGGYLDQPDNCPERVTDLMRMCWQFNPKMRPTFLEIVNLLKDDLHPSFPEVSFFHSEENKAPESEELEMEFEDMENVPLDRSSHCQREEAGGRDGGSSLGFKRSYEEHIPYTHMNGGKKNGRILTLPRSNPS
The test system of assay [3] is P815 cells. In words: P815 cell proliferation and viability (trypan blue counting). The assay is classed as cell-based, murine. Particulars: treated daily with 10 μM. As to the method: as §1, §2
Assay [4] concerns platelet-derived growth factor receptor. Particulars: cited from earlier work.
For assay [5], the target named is T1, KIT with substitution of Tyr for Asp814 (P815 KIT) (Mus musculus, UniProt P05532, D818Y).
T1 construct: mutant KITs expressed in C2 and P815 cells; endogenous in cells; host or cells: P815 murine mastocytoma cells
T1 sequence (P05532 25-975 isoform P05532-2 D814Y): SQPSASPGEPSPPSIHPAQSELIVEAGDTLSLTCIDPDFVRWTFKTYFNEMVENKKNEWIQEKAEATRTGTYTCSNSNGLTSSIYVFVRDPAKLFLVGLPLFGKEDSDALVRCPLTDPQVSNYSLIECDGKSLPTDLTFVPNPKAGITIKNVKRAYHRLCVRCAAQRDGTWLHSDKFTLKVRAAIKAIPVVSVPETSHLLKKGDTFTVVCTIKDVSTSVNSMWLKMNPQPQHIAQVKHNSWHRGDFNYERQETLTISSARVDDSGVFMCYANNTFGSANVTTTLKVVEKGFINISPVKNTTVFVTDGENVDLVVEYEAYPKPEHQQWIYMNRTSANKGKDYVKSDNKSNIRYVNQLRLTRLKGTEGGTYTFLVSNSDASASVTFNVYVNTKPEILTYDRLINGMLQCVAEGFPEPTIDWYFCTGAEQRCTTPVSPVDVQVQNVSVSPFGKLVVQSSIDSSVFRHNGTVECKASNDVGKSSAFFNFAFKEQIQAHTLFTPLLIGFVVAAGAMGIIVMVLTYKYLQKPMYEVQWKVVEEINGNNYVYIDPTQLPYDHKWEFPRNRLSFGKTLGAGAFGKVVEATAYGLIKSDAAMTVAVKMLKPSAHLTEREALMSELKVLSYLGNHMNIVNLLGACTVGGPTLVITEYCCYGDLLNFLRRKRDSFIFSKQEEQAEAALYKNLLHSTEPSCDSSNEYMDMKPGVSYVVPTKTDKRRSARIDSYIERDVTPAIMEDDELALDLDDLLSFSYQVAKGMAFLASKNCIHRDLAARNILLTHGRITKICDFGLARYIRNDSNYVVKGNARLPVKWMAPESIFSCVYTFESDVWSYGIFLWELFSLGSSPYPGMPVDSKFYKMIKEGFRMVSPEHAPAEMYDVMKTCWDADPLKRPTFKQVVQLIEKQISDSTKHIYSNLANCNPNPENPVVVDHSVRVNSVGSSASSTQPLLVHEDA
The experiment in a line: Phosphorylation of mutant KIT in P815 cells. The assay is classed as cell-based, murine. Particulars: 40 μM, 30 min. The method, then: (§3) FIG. 1: Effects of indolinone derivatives on phosphorylation of wild-type and mutant KITs. […] The compound with the structure VII or structure VI are effective against KIT containing an activating juxtamembrane domain mutation in C2 cells.
as §2
For activating mutations in the kinase domain, the P815 murine mast cell tumor line (Dunn et al, 1957) was examined. P815 c-KIT contains a point mutation resulting in substitution of Tyr for Asp814, the equivalent position of human Asp816, which causes constitutive receptor activation (Tsujimura et al, 1994).

In assay [6] the test system is fibroblast growth factor receptor. Particulars: cited from earlier work.
In assay [7] the test system is wild-type KIT. In words: Phosphorylation of wild-type KIT expressed in COS cells (anti-phosphotyrosine blot). The assay is classed as cell-based. Particulars: 5 μM, 30 min, SCF 100 ng/ml 10 min. The method, then:
as §3, §2

Assay [8] concerns KIT with juxtamembrane insertion mutation (C2 KIT). The experiment in a line: Constitutive phosphorylation of mutant KIT in C2 dog mastocytoma cells. Type of assay: cell-based. Particulars: 5 μM. As to the method: as §3, §2
The effects of these compounds on constitutive activation of KIT mutants expressed by neoplastic mast cells were then tested. For activating juxtamembrane mutations, the C2 dog mastocytoma cell line was studied (Lazarus et al, 1986; DeVinney and Gold, 1990), in which KIT is constitutively active due to a juxtamembrane insertion mutation (Ma et al, 1999a). […] The effects of these compounds on constitutive phosphorylation of KIT bearing in the juxtamembrane region either deletion of Trp556-Lys557 or substitution of Pro for Leu575, mutations previously identified in dog mastocytomas (Ma et al, 1999a) were also examined.

In the case of `O=CN1CCN(c2ccc(/C=C3/C(=O)Nc4ccccc43)cc2)CC1` [structure VII], the “effect on C2 cell proliferation” value in assay [1] was “killed”. Also, the “inhibition of insulin receptor” value in assay [2] was “effective”. Also, the “effect on P815 cell proliferation” value in assay [3] was “killed”. Moreover, the “inhibition of platelet-derived growth factor receptor” value in assay [4] is “effective”. The “inhibition of phosphorylation of the P815 KIT mutant” value in assay [5] is recorded as “not effectively inhibiting”. Further, the “inhibition of fibroblast growth factor receptor” value in assay [6] was “effective”. Also, in assay [7], the “effect on tyrosine phosphorylation of the wild-type receptor” value is recorded as “substantially reduce”. Further, the “reduction of the constitutive C2 KIT phosphorylation” value in assay [8] is “approximately 50%”.

The record behind these values is patent publication US6339100B1, “Methods for inhibiting mastocytosis” (The Trustees of Columbia University in the City of New York, priority 1999, dated 2002).
